3 compounds from patent US20220144817A1 (Karuna Therapeutics, Inc., priority 2019, published 2022) can be followed below.

Structures can show the parent of a compound that is named as a salt.

Data set [1] can be described thus: Pharmacokinetics following single oral dose administration in male Sprague-Dawley rats. The class given is in vivo. The following applies: single oral dose of the tartrate salt, 25 mg/kg, plasma, normalized to actual dosing concentration. Here is the method:
Blood samples were collected from all animals in Groups 1-3 at 0.25, 0.5, 1, 2, 4, 6, 8, 12 and 24 hours post dose, with each animal bled at all time points. […] The slopes of the elimination phase of the concentrations vs. time curve used to calculate the T1/2 were determined by log-linear regression.
PK analyses were performed and validated using Phoenix® WinNonlin® version 8.0.
Estimated elimination half-life (tr) was also similar among treatment groups (ranged between 1.5 and 2.7 hours post-dose).

For data set [2], the target named is T1, muscarinic acetylcholine receptor human M4 (hM4) (Homo sapiens, UniProt P08173).
T1 sequence (P08173 1-479): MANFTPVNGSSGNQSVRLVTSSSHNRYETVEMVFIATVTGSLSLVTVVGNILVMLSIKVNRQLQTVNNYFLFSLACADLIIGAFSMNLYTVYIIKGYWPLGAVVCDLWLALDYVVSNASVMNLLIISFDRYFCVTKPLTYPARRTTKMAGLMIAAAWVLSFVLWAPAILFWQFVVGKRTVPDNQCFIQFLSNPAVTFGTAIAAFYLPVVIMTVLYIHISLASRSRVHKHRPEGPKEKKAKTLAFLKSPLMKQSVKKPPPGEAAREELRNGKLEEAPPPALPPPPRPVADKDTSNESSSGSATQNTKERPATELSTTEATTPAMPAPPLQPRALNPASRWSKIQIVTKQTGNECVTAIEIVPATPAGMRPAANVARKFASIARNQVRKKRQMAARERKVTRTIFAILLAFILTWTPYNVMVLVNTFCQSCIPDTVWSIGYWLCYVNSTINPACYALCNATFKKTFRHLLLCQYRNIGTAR
The following applies: pERK; rank hM4>hM1. The source says:
(§1) The Flp-In™ cell lines are designed for rapid generation of stable cell lines that express a protein of interest from a Flp-In™ expression vector.
(§2) Extracellular signal-related kinase (ERK1/2 or p42/44) is a kinase in the mitogen-activated protein kinase (MAPK) family. Phosphorylation of ERK (pERK) can be used as a common end point measurement for the activation of many classes of G protein coupled receptors (GPCR) and beta-arrestin linked signaling.
(§3) For the pERK assay, cells were serum starved for 5 to 6 hours. Curves were normalized to the maximum response from the fetal bovine serum (FBS) medium corresponding to a 5-minute stimulation. A 5-minute incubation with the agonists was selected for the dose response pERK assays (n=2).
(§4) Nonlinear regression curves were calculated per the three parameters method with no constraints.

Data set [3] addresses T2, muscarinic acetylcholine receptor human M3 (hM3) (Homo sapiens, UniProt P20309).
T2 construct: expressed in transfected cells
Briefly: pERK dose response in CHO cells stably expressing hM3. The class given is cell-based. The following applies: for EC50: CHO cells expressing hM3, 5-minute incubation, normalized to maximum FBS response, n=3, read-out: pEC50 (pERK), M3 (converted); for agonist capacity at hM3: pERK, rank hM3>hM5>hM2.

Data set [4] deals with T3, muscarinic acetylcholine receptor human M2 (hM2) (Homo sapiens, UniProt P08172).
T3 construct: expressed in transfected cells
T3 sequence (P08172 1-466): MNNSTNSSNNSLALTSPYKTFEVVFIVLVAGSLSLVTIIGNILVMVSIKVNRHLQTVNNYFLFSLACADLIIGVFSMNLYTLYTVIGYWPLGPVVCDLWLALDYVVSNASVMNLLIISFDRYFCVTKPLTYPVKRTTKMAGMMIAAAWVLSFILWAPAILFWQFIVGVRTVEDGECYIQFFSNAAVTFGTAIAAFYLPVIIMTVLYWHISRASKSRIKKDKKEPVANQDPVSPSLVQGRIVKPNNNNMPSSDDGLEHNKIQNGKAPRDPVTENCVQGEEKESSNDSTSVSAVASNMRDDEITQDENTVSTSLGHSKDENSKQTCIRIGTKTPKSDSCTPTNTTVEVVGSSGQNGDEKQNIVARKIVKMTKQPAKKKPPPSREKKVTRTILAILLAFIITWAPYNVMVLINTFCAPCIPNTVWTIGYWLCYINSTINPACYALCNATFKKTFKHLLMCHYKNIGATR
In words: pERK dose response in CHO cells stably expressing hM2. It counts as cell-based. The following applies: rank hM3>hM5>hM2.

Data set [5] deals with T4, muscarinic acetylcholine receptor human M5 (hM5) (Homo sapiens, UniProt P08912).
T4 construct: expressed in transfected cells
T4 sequence (P08912 1-532): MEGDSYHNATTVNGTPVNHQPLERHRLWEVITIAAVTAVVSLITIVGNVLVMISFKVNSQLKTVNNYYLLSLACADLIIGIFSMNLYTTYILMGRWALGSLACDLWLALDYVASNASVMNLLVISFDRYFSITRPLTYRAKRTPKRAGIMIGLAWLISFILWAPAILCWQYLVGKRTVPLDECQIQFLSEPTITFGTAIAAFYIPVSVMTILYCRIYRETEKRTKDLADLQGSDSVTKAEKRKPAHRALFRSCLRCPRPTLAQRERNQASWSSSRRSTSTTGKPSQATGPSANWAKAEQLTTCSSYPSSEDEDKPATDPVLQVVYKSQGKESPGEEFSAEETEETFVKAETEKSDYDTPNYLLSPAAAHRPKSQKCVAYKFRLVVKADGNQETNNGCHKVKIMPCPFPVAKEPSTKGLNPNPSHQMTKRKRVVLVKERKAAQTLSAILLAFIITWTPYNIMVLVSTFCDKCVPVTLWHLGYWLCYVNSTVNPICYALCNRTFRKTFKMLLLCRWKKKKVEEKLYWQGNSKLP
In words: pERK dose response in CHO cells stably expressing hM5. It counts as cell-based. The following applies: rank hM3>hM5>hM2.
Text: as §1, §2, §3, §4

T2 sequence (P20309 whole entry): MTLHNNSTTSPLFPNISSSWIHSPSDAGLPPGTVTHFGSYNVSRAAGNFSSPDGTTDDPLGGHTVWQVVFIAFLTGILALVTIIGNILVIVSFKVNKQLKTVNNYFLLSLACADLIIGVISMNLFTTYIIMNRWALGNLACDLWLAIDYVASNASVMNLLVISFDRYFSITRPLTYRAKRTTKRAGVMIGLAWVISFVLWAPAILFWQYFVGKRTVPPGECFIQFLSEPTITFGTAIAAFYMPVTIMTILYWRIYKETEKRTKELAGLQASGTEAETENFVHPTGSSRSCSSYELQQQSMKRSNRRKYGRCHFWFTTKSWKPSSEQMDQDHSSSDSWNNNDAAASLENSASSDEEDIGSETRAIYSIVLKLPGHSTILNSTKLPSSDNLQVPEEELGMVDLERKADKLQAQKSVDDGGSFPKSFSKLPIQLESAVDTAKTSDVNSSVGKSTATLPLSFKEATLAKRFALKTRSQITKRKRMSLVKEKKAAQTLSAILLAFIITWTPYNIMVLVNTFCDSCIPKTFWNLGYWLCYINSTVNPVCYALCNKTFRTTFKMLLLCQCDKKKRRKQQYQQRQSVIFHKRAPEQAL

On to `CCCCCCOc1nsnc1C1=CCCN(C)C1` [Xanomeline tartrate, 3-(hexyloxy)-4-(1-methyl-1,2,5,6-tetrahydropyridin-3-yl)-1,2,5-thiadiazole, reference compound], for which the “normalized AUC” value in data set [1] is 4210 pg·h/mg.

`[2H]C([2H])([2H])C([2H])([2H])C([2H])([2H])C([2H])([2H])C([2H])([2H])C([2H])([2H])Oc1nsnc1C1=CCCN(C)C1` [Xanomeline-d13, 3-((hexyl-1,1,2,2,3,3,4,4,5,5,6,6,6-d13)oxy)-4-(1-methyl-1,2,5,6-tetrahydropyridin-3-yl)-1,2,5-thiadiazole]: the “agonist capacity at hM4” value in data set [2] is “efficacious partial agonist”. Further, in data set [3], the EC50 is 9.66 nM and the “agonist capacity at hM3” value was “modestly potent partial agonists”. For the same compound, in data set [4], the “agonist capacity at hM2” value is “modestly potent partial agonists”. In data set [1], the “normalized AUC” value was 8070 pg·h/mg. Further, the “agonist capacity at hM5” value in data set [5] is given as “modestly potent partial agonists”.

Consider `[2H]C([2H])([2H])N1CCC=C(c2nsnc2OC([2H])([2H])C([2H])([2H])C([2H])([2H])C([2H])([2H])C([2H])([2H])C([2H])([2H])[2H])C1` [Xanomeline-d16, 3-((hexyl-1,1,2,2,3,3,4,4,5,5,6,6,6-d13)oxy)-4-(1-(methyl-d3)-1,2,5,6-tetrahydropyridin-3-yl)-1,2,5-thiadiazole], for which the “agonist capacity at hM4” value in data set [2] was “efficacious partial agonist”. In data set [3], the EC50 was 27.2 nM and the “agonist capacity at hM3” value is recorded as “modestly potent partial agonists”. For the same compound, the “agonist capacity at hM2” value in data set [4] is “modestly potent partial agonists”. In addition, the “normalized AUC” value in data set [1] was determined as 6780 pg·h/mg. In data set [5], the “agonist capacity at hM5” value is listed as “modestly potent partial agonists”.
